Patent US7638514B2, “Pesticidally active phenol derivatives” (Syngenta Crop Protection, Inc., priority 2003, dated 2009)

Key:
Format in all cases: in vivo
[1] = system: Spodoptera littoralis caterpillars; experiment: Action against Spodoptera littoralis; details: 72 h, 400 ppm spray mixture on young soybean plants, 10 caterpillars in the first stage, 3 days later, read-out: percentage reduction in population and percentage reduction in feeding damage (% activity)
Description: Young soybean plants are sprayed with an aqueous emulsion spray mixture comprising 400 ppm of test compound and, after the spray-coating has dried, the plants are populated with 10 caterpillars of Spodoptera littoralis in the first stage and then placed in a plastics container, 3 days later, the percentage reduction in population and the percentage reduction in feeding damage (% activity) are determined by comparing the number of dead caterpillars and the feeding damage on the treated plants with that on untreated plants.

[2] = system: Heliothis virescens caterpillars; experiment: Action against Heliothis virescens caterpillars; details: 144 h, 400 ppm spray mixture on young soybean plants, 10 caterpillars in the first stage, evaluation 6 days later, read-out: percentage reduction in population and percentage reduction in feeding damage (% activity)
Description: Young soybean plants are sprayed with an aqueous emulsion spray mixture comprising 400 ppm of test compound. After the spray-coating has dried, the soybean plants are populated with 10 caterpillars of Heliothis virescens in the first stage and placed in a plastics container. Evaluation is made 6 days later. The percentage reduction in population and the percentage reduction in feeding damage (% activity) are determined by comparing the number of dead caterpillars and the feeding damage on the treated plants with that on the untreated plants.

[3] = system: Plutella xylostella caterpillars; experiment: Action against Plutella xylostella caterpillars; details: 72 h, 400 ppm spray mixture on young cabbage plants, 10 caterpillars in the third stage, evaluation 3 days later, read-out: percentage reduction in population and percentage reduction in feeding damage (% activity)
Description: Young cabbage plants are sprayed with an aqueous emulsion spray mixture comprising 400 ppm of test compound. After the spray-coating has dried, the cabbage plants are populated with 10 caterpillars of Plutella xylostella in the third stage and placed in a plastics container. Evaluation is made 3 days later. The percentage reduction in population and the percentage reduction in feeding damage (% activity) are determined by comparing the number of dead caterpillars and the feeding damage on the treated plants with that on the untreated plants.

Measured: inhibition at 400 ppm

C=C(COc1ccc(C(F)(F)F)cc1)COc1c(Cl)cc(OCC=C(Cl)Cl)cc1Cl [Compound 1.9, 1,3-dichloro-5-(3,3-dichloro-allyloxy)-2-[2-(4-trifluoromethyl-phenoxymethyl)-allyloxy]-benzene]
> 80%: all assays above

O=C(NCCCOc1c(Cl)cc(OCC=C(Cl)Cl)cc1Cl)C(=C(Cl)Cl)c1ccc(C(F)(F)F)cc1 [Compound 1.2, 3,3-dichloro-N-{3-[2,6-dichloro-4-(3,3-dichloro-allyloxy)-phenoxy]-propyl}-2-(4-trifluoromethyl-phenyl)-acrylamide]
> 80%: all assays above
